Test results: PubChem BioAssay (NCI)
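Values below derive from 48-hour exposures of cells grown in 96-well plates, with endpoints linearly interpolated between the two concentrations bracketing the appropriate inhibition level. Here, GI50 denotes the concentration required for 50% inhibition of growth. TGI marks complete inhibition of growth.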

Experiments:
Test in all cases: growth of human tumour cells (NCI), 48 h
SNB-75 CNS = system: SNB-75 CNS
SK-MEL-2 melanoma = system: SK-MEL-2 melanoma
A498 renal = system: A498 renal
OVCAR-5 ovarian = system: OVCAR-5 ovarian
IGROV1 ovarian = system: IGROV1 ovarian
HOP-62 NSCLC = system: HOP-62 NSCLC
U251 CNS = system: U251 CNS
UACC-257 melanoma = system: UACC-257 melanoma
SW-620 colon = system: SW-620 colon
MCF7 breast = system: MCF7 breast

Compound	TGI (SNB-75 CNS) [µM]	TGI (SK-MEL-2 melanoma) [µM]	TGI (A498 renal) [µM]	TGI (OVCAR-5 ovarian) [µM]	TGI (IGROV1 ovarian) [µM]	TGI (HOP-62 NSCLC) [µM]	TGI (U251 CNS) [µM]	TGI (UACC-257 melanoma) [µM]	TGI (SW-620 colon) [µM]	GI50 (SNB-75 CNS) [µM]	GI50 (SK-MEL-2 melanoma) [µM]	GI50 (OVCAR-5 ovarian) [µM]	GI50 (IGROV1 ovarian) [µM]	GI50 (HOP-62 NSCLC) [µM]	GI50 (U251 CNS) [µM]	GI50 (MCF7 breast) [µM]	TGI (MCF7 breast) [µM]	GI50 (UACC-257 melanoma) [µM]	GI50 (SW-620 colon) [µM]	GI50 (A498 renal) [µM]
CCOc1ccc(-c2oc(/C=N/NS(=O)(=O)c3ccc(C)cc3)c([N+](=O)[O-])c2-c2ccc(OCC)cc2)cc1	35.2	44.8	41.4	24.1	32.3	> 64.3	21.2	45	7.76	–	–	–	–	–	–	–	–	–	–	–
C[N+](C)=c1nc(N2CCOCC2)ss1	–	> 100	> 100	> 100	> 100	> 100	> 100	> 100	> 100	–	–	–	–	–	–	–	–	–	–	–
CN(C)CCCC1(c2ccc(F)cc2)OCc2cc(-c3cncc4ccccc34)ccc21 (stereo unspecified)	6.86	4.74	–	18.3	12.2	16.8	5.7	4	11.5	1.66	2.14	5.23	2.88	3.8	2.22	1.89	4.57	2.02	3.08	–
NC(=O)c1c[se]c(C2OC(COP(=O)(O)CP(=O)(O)OCC3OC(n4cnc5c(N)ncnc54)C(O)C3O)C(O)C2O)n1 (stereo unspecified)	> 100	> 100	> 100	> 100	> 100	> 100	> 100	> 100	> 100	–	–	–	–	–	–	–	–	–	–	–
CCCCCCCCCC(=O)Oc1cccc2onc(C)c12	> 100	> 100	–	> 100	> 100	> 100	> 100	> 100	> 100	–	–	–	–	–	–	–	–	–	–	–
COC(=O)C1(F)C(=O)NC(=O)NC1OC (stereo unspecified)	> 100	> 100	> 100	> 100	> 100	> 100	> 100	> 100	> 100	–	–	–	–	–	–	–	–	–	–	–
CC1(C)OC(COCCOCCCCCO)C(COCCOCCCCCO)O1 (stereo unspecified)	> 100	> 100	> 100	> 100	> 100	> 100	> 100	> 100	> 100	–	–	–	–	–	–	–	–	–	–	–
c1ccc(NC[Si]23OCCN(CCO2)CCO3)cc1	> 100	> 100	> 100	> 100	> 100	–	> 100	> 100	> 100	–	–	–	–	–	–	–	–	–	–	–
Cc1nnc(N=Nc2c(O)[nH]c3ccccc23)n1N	> 100	> 100	> 100	> 100	> 100	> 100	> 100	> 100	> 100	–	–	–	–	–	–	–	–	–	–	–
O=[N+]([O-])C1C2C=CC(C2)[C@H]1c1ccc(Cl)cc1Cl (stereo partly specified)	> 100	> 100	> 100	> 100	–	–	> 100	99	> 100	–	–	–	–	–	–	–	–	–	–	–
CC1(C)CC(=O)c2c(oc3cc(O)c(O)cc23)C1	> 100	76.8	> 100	56.9	> 100	> 100	> 100	> 100	37.2	–	–	–	–	–	–	–	–	–	–	–
CC(c1ccccc1)N1CC(C)(c2ccccc2)N(O)C(c2ccccc2)C1C (stereo unspecified)	55.2	28	85.3	> 100	> 100	38.9	32.7	45.1	68.1	–	–	–	–	–	–	–	–	–	–	–
Cc1ccccc1NC(=O)C(=O)CC(=O)c1ccc([N+](=O)[O-])cc1	> 100	> 100	–	> 100	> 100	> 100	> 100	> 100	> 100	–	–	–	–	–	–	–	–	–	–	–
CC(C)(C)[Si](C)(C)OCC1OC(n2cnc3c(N)ncnc32)C(O)C1O (stereo unspecified)	> 100	> 100	–	> 100	> 100	> 100	> 100	> 100	> 100	–	–	–	–	–	–	–	> 100	–	–	–
C/C(=N\n1c(N)c(C#N)c(-c2ccc(Cl)cc2)c(C#N)c1=O)c1ccncc1	26.6	> 100	–	> 100	> 100	48.8	44.6	95.3	> 100	6.11	27.8	60.4	5.02	16.9	19.6	5.7	93.9	13.5	31.5	–
Nc1ccn([C@@H]2C(F)=C(CO)[C@@H](O)[C@H]2O)c(=O)n1	> 100	> 100	–	> 100	> 100	–	> 100	–	> 100	9.94	> 100	12.2	2.88	–	2.78	0.362	> 100	–	0.546	–
Cc1cc([N+](=O)[O-])c(S(=O)(=O)c2ccccc2)c([N+](=O)[O-])c1	47.3	47.6	35.6	33.6	31.1	40	26.6	5.16	10.1	–	–	–	–	–	–	–	–	–	–	–
COc1ccc(-c2cc(/C=C/C(=O)c3cc(OC)c(OC)c(OC)c3)[nH]n2)cc1OC	3.77	7.7	4.99	4.31	8.61	3.59	2.53	3.8	4.16	1.31	2.69	1.76	2.72	1.45	1.24	–	–	1.79	1.5	1.46
COc1ccc(-c2nc3c(c(=O)n2C(C)=O)C(c2ccc(Cl)cc2)c2sc4c(Cl)cccc4c2O3)cc1 (stereo unspecified)	9.98	1.69	–	3.4	3.12	1.96	1.76	3.29	1.75	0.738	0.374	1.2	0.512	0.275	0.483	0.151	1.37	0.776	0.376	–
COc1ccc(CC2=NCCc3cc(OC)c(OC)cc32)cc1Br	–	> 100	95.1	8.32	–	> 100	> 100	82.6	> 100	–	–	–	–	–	–	–	–	–	–	–

Compound	TGI (SNB-75 CNS) [µM]	TGI (SK-MEL-2 melanoma) [µM]	TGI (A498 renal) [µM]	TGI (OVCAR-5 ovarian) [µM]	TGI (IGROV1 ovarian) [µM]	TGI (HOP-62 NSCLC) [µM]	TGI (U251 CNS) [µM]	TGI (UACC-257 melanoma) [µM]	TGI (SW-620 colon) [µM]	GI50 (SNB-75 CNS) [µM]	GI50 (SK-MEL-2 melanoma) [µM]	GI50 (OVCAR-5 ovarian) [µM]	GI50 (IGROV1 ovarian) [µM]	GI50 (HOP-62 NSCLC) [µM]	GI50 (U251 CNS) [µM]	GI50 (MCF7 breast) [µM]	TGI (MCF7 breast) [µM]	GI50 (UACC-257 melanoma) [µM]	GI50 (SW-620 colon) [µM]	GI50 (A498 renal) [µM]
NC(N)=N/N=C/c1c(-c2ccc(Cl)c([N+](=O)[O-])c2)nc2n1CCS2	37.9	–	39.5	27.8	–	9.44	–	51.8	–	16	–	14.6	–	2.83	–	–	–	20.6	–	18.3
CCOC1=C2NC(Cc3ccc(F)cc3)=NC2C(=O)c2ccccc21 (stereo unspecified)	55.1	44.2	87.9	> 100	> 100	> 100	> 100	50.8	–	–	–	–	–	–	–	–	–	–	–	–
C/C(=N/NC(=O)CC(=O)N(C(=O)c1ccccc1Cl)c1ccc(C)cc1)c1cc2ccccc2oc1=O	> 100	–	> 100	> 100	> 100	> 100	> 100	> 100	> 100	–	–	–	–	–	–	–	–	–	–	–
COc1cc2cccc(N=Cc3c(Br)ccc(OC)c3OC(C)C)c2cc1OC	89.3	> 100	> 100	> 100	> 100	> 100	> 100	> 100	> 100	–	–	–	–	–	–	–	–	–	–	–
CC1(C)C2CCC13C(=O)C1OC3(C2)C2C(=O)c3c(O)cccc3C(=O)C12 (stereo unspecified)	22.3	> 100	3.49	13.7	–	31.7	1.81	2.43	–	7.28	3.69	4.25	–	16.1	0.64	3.37	15.4	0.792	–	1.89
Fc1cc(-c2nnc3n2N=C(c2ccc(Cl)cc2Cl)CS3)c(Cl)cc1Cl	> 100	> 100	–	> 100	> 100	> 100	> 100	> 100	> 100	> 100	> 100	> 100	50.4	44.2	38.2	31.3	> 100	86	36.8	–
C=CC1=CC(C)C[C@]1(O)C(=O)OC (stereo partly specified)	–	–	–	–	–	–	–	–	–	> 100	> 100	> 100	> 100	> 100	> 100	–	–	> 100	< 0.01	> 100
CC(=O)OCCC(O[Si](c1ccccc1)(c1ccccc1)C(C)(C)C)C(C)(C)O (stereo unspecified)	> 100	> 100	> 100	> 100	> 100	–	> 100	> 100	> 100	–	–	–	–	–	–	–	–	–	–	–
c1cnc2[nH]cc(-c3csc(-c4cn(CCCN5CCCCC5)c5ccccc45)n3)c2c1	2.84	4.24	3.38	3.11	–	3.02	3.28	3.73	–	1.21	2.04	1.63	–	1.47	1.8	–	–	1.97	–	1.83
CC[P+]1(CC)CCCC1	> 100	> 100	–	> 100	> 100	> 100	> 100	> 100	> 100	–	–	–	–	–	–	–	–	–	–	–
CC(=O)[CH-]C(=O)c1ccccc1.CC(=O)[CH-]C(=O)c1ccccc1.[CH2-]CCC.[CH2-]CCC.[Sn+4]	1.18	1.77	3.74	3.59	3.28	–	2.65	1.69	0.964	0.352	0.555	2.07	1.57	–	1.32	–	–	0.343	0.283	1.66
COc1ccc2[nH]c3c(=O)[nH]ncc3c2c1	57.4	> 100	> 100	> 100	> 100	> 100	> 100	> 100	> 100	–	–	–	–	–	–	–	–	–	–	–
COC(=O)c1cc2c3c(ccc2[nH]1)N(C(=O)c1cc2c4c(ccc2[nH]1)N(C(=O)c1cc2c5c(ccc2[nH]1)N(C(N)=O)CC5)CC4)CC3	–	> 24.4	4.4	> 100	20.5	7.83	> 21.9	> 100	> 100	–	–	–	–	–	–	–	–	–	–	–
COc1nc2c(c(O)c(C)c(=O)n2OC2OC(COC(C)=O)C(OC(C)=O)C(OC(C)=O)C2OC(C)=O)c(=O)n1C (stereo unspecified)	> 100	> 100	–	> 100	> 100	> 100	> 100	–	> 100	–	–	–	–	–	–	–	–	–	–	–
CCN(CC)CCCCC1CCN(CC(=O)N2c3ccccc3NC(=O)CC2C)CC1 (stereo unspecified)	> 100	> 100	> 100	> 100	> 100	> 100	> 100	> 100	> 100	–	–	–	–	–	–	–	–	–	–	–
COc1ccc(C2NCCc3c2[nH]c2ccccc32)cc1 (stereo unspecified)	> 100	–	–	> 100	> 100	> 100	> 100	> 100	> 100	–	–	–	–	–	–	–	–	–	–	–
CCOC(=O)C[C@@]12CCCNC1(C)CCc1ccccc12 (stereo partly specified)	–	> 100	–	–	> 100	> 100	> 100	> 100	> 100	–	–	–	–	–	–	–	–	–	–	–
C/C(=N/O)c1ccc2c(c1)C(=NO)c1cc(/C(C)=N/O)ccc1-2	36.3	40.1	–	31.6	49.2	28.3	28.6	5.87	34.8	–	–	–	–	–	–	–	–	–	–	–
O=C(O)[C@@H]1CCCC[C@@H]1C(=O)N(C1CCCCC1)C1CCCCC1	> 100	> 100	> 100	> 100	> 100	> 100	> 100	> 100	> 100	–	–	–	–	–	–	–	–	–	–	–
CC12OC(C(=O)C13CCC3)C1C(=O)c3ccccc3C(=O)C12 (stereo unspecified)	> 100	> 100	–	> 100	> 100	> 100	> 100	> 100	–	> 100	> 100	> 100	> 100	> 100	55	> 100	> 100	44	–	–
